Results reported in publication PMC5442318, “Hundreds of dual-stage antimalarial molecules discovered by a functional gametocyte screen” (Nature Communications, 2017).
Read-outs that look alike come from different tables or passages of the source.

Tests used:
[1] = tested on: P. falciparum stages IV–V gametocytes; assay: Gametocytocidal ATP-depletion assay (gametocyte ATP bioluminescence); format: cell-based, Plasmodium falciparum
Protocol: In parallel, the set of confirmed hits from the Pf FGAA screen was cross-compared in the gametocyte ATP-depletion assay, at 2 μM single concentration (Supplementary Data 1). This assay monitors ATP levels as surrogate of gametocyte viability.
‘Viability' of mature gametocytes was determined using the gametocyte ATP bioluminiscence assay. Briefly, stages IV–V gametocyte cultures were double-purified by differential sedimentation followed by magnetic isolation. Then, parasites (50 μl per well containing 12,500 gametocytes) were added to compound pre-dispensed 384-well plates (781091, Greiner Bio-One) and incubated at 37 °C for 48 h (3% O2, 5% CO2 and 92% N2). BacTiter-Glo kit (G8231, Promega) was used to determine the ATP levels of ‘live' parasites according to the manufacturer's instructions. After reagent addition (50 μl per well), luminescence of the plates was measured using a microplate reader (HTS counter Victor, Wallac).

[2] = tested on: P. falciparum stage V female gametocytes; assay: P. falciparum female gametocyte activation assay (Pf FGAA), 24 h or 48 h preincubation, Pfs25 expression readout; format: cell-based, Plasmodium falciparum NF54; settings: mean, read-out: Gametocytes mean Pf FGAA IC50
Protocol: P. falciparum NF54 (originally isolated from an imported malaria case in the Netherlands in the 1980s; BEI Resources, cat. no. MRA-1000) asexual-stage culture was performed as described by Trager and Jensen[37]. Cultures synchronized at the ring stage were used to start gametocyte cultures (day 0) at 1% parasitaemia and 4% haematocrit in 200 ml final volume using culture bottles (Nalgene 3110-42, Thermo Scientific). Complete culture medium (RPMI 1640 supplemented with 25 mM HEPES, 50 μg ml^−1 hypoxanthine, 2 g l^−1 NaHCO3 and 10% pooled human male type A+ serum) was totally replaced daily for 14 days without fresh erythrocyte addition. Human serum was obtained from Interstate Blood Bank, A^+ serotype; no aspirin 2 h before drawing and no antimalarials 2 weeks before drawing. To ensure a stable temperature at 37 °C, which is crucial for gametocyte production and maturation, pre-warmed medium and a slide warmer (XH-2001, Premiere) were used. Under these conditions, parasitaemia reaches a peak of asexual stages on days 4–5, and the first gametocytes are differentiated in culture on day 6. Sexual-stage development was monitored microscopically by Giemsa-stained thin blood smears at day 7 (mainly asexual stages and stages I to III gametocytes) and day 14 (stages IV and V gametocytes).
Cultures showing mainly stage V gametocytes were purified by differential sedimentation as previously reported. The gametocyte concentration was adjusted to plate 8,000 gametocytes per well (100 μl per well) in 384-well poly-D-lysine coated plates (781946, Greiner Bio-One) containing the compounds to test. […] Female gametocyte activation was then triggered by temperature drop and addition of xanthurenic acid (D120804, Sigma) as previously described. To detect female gametes, monoclonal anti-Pfs25 antibody[38] 4B7 (BEI Resources (formerly MR4), cat. no. MRA-315) conjugated to the Cy3 fluorochrome (GE Healthcare) was added to ookinete medium (RPMI 1640 supplemented with 25 mM HEPES, 50 μg ml^−1 hypoxanthine, 2 g l^−1 NaHCO3, 100 μM xanthurenic acid and 20% human serum) at a final concentration of 0.5 μg ml^−1. Activated cultures were then kept at 26 °C for 24 h protected from light, and image acquisition was performed in the Opera High-Content Screening System (PerkinElmer). Using × 10 air objective, five images per well were taken using 532 nm excitation. Images were analysed with a Columbus image data storage and analysis system (PerkinElmer) based on a script specifically designed for this assay that considers size, roundness and intensity of fluorescence of the female activated gametocytes.
Compounds were dissolved in 100% DMSO and dispensed in the 384-well plates using an Echo-CRS liquid handler. Compounds were tested in 2–3 independent experiments. […] Based on that, Z′ factor was calculated for each plate and only those ones with values higher than 0.4 were considered acceptable for data analysis.
Assay performance statistics, such as signal to background ratio, Z′ and robust 3 s.d. activity cut-off were calculated using templates in ActivityBase XE (IDBS, Guilford, Surrey, UK). Hit population analysis and visualization were conducted using Spotfire DecisionSite (Spotfire, Inc., Somerville, MA, USA). The pIC50 (−log IC50) values were obtained using the ActivityBase XE nonlinear regression function in the full curve analysis bundle.

[3] = tested on: P. falciparum asexual blood stages; settings: read-out: Pf Asexual blood stages XC50, cited from earlier work
HepG2 cells = assay: HepG2 cytotoxicity assay; format: cell-based
Protocol: After incubation, plates and CellTiter-Glo Reagent (G7571, Promega) were equilibrated at room temperature for 30 min before proceeding to develop the luminescent signal. Using a Multidrop combi dispenser, 25 μl per well of the signal developer were added to the plates and after 10 min at room temperature for stabilization, plates were read on the ViewLux system (Perkin Elmer).

[4] = P. falciparum female gametocytes
[5] = TCAMS asexual blood stage data, ref 1 (Gamo, F. J. et al., Nature 465, 305-310, 2010)
[6] = TCAMS data, ref 1 (Gamo et al., 2010)

IC50 [2, 4] [nM]	SMILES	Gametocytes mean ATP inhibition at 2µM [1] [%]	IC50 [3, 5] [nM]	HepG2 cells mean TOX50 (HepG2 cells; HepG2 cells) [µM]	Gametocytes mean ATP inhibition at 2µM (%) [1] [%]	other results
3340	OCCN1CCN(c2ccc(Nc3ccnc4cc5ccccc5cc34)cc2)CC1 [TCMDC-123915]	2.56	40	5.43	–	–
1910	Cc1ccnc(NC(c2cccc(Cl)c2Cl)c2ccc3cccnc3c2O)c1 (centres unmarked) [TCMDC-123997]	90.58	1000	45.69	–	–
36.6	[O-][s+]1c(Cl)c(-c2ccc(Cl)cc2)c2ccc(Cl)cc21 (centres unmarked) [TCMDC-124011]	87.64	990	11.35	–	–
1080	Cc1cc(I)ccc1Nc1nc2nonc2nc1Nc1ccc(I)cc1C [TCMDC-124083]	6.94	510	0.93	–	–
2400	FC(F)(F)c1cccc(Nc2nc3ccccc3nc2Nc2cccc(C(F)(F)F)c2)c1 [TCMDC-124162]	20.50	140	17.68	–	–
32.3	c1ccc(-c2csc(Nc3nc4cc5c(cc4s3)OCO5)n2)nc1 [TCMDC-124550]	56.70	580	–	–	–
3030	Oc1c(C(Nc2nc3ccccc3s2)c2ccccc2)ccc2cccnc12 (centres unmarked) [TCMDC-125565]	91.61	650	–	–	–
15.3	S=C(NN=Cc1ccccn1)NC1CC2C=CC1C2 (centres unmarked) [TCMDC-125752]	74.38	720	–	–	–
27.3	Cc1ccc(Nc2nc(-c3ccccn3)cs2)nc1 [TCMDC-125854]	82.15	750	–	–	–
350	Cc1cc(C(=O)Nc2nc(-c3ccccn3)nc3ccsc23)no1 [TCMDC-135243]	53.53	810	–	–	–

Second part, the compound before the results:

SMILES	IC50 [2, 4] [nM]	Gametocytes mean ATP inhibition at 2µM [1] [%]	IC50 [3, 5] [nM]	HepG2 cells mean TOX50 (HepG2 cells; HepG2 cells) [µM]	Gametocytes mean ATP inhibition at 2µM (%) [1] [%]	other results
CNC(=S)NN=C(C)c1ccccn1 [TCMDC-123475]	14	81.04	270	–	–	–
COc1ccc(C[C@H](N)C(=O)N[C@H]2[C@@H](O)[C@H](n3cnc4c(N(C)C)ncnc43)O[C@@H]2CO)cc1 [TCMDC-123493]	–	–	170	1.80	–	inhibition at 2 µM ([1]; Plasmodium falciparum, mean): 63.8%; IC50 ([2]; Plasmodium falciparum, P. falciparum female gametocytes): 290 nM; Selectivity ratio (HepG2 cells; HepG2 TOX50 versus Pf FGAA IC50): 6.24
Cc1ccc(-c2nc3cc(NC(=O)c4ccc([N+](=O)[O-])o4)ccc3o2)cc1Cl [TCMDC-123657]	1350	8.99	160	1.72	–	–
CCN(CC)CCCn1c(N)c(-c2nc3ccccc3[nH]2)c2nc(C#N)c(C#N)nc21 [TCMDC-123680]	740	86.44	270	4.27	–	–
Cc1ccnc(NC(c2ccc(Cl)c([N+](=O)[O-])c2)c2ccc3cccnc3c2O)c1 (centres unmarked) [TCMDC-123691]	1480	95.66	930	23.45	–	–
NC(=Nc1nc(-c2ccccn2)cc2ccccc12)c1cccc(Cl)c1 [TCMDC-123745]	50	49.04	310	–	–	–
OC1CCN(c2cc(-c3ccccn3)nc(-c3ccccn3)n2)CC1 [TCMDC-123786]	1540	104.88	1050	14.14	–	–
COc1ccc(-c2csc3ncnc(Cl)c23)cc1 [TCMDC-123805]	1460	-0.54	780	0.55	–	–
COc1cc2nc(N3CCN(c4nc(N)c5cc(OC)c(OC)cc5n4)CC3)nc(N)c2cc1OC [TCMDC-123865]	580	90.91	150	52.49	–	–
CCCC(=O)NC(c1ccc(C(C)C)cc1)c1ccc2cccnc2c1O (centres unmarked) [TCMDC-123884]	1540	63.50	930	>100	–	–
Cc1c(Cl)cccc1S(=O)(=O)Nc1ccc(CCN2CCC(N)CC2)cc1.Cl [TCMDC-134083]	–	-1.32	1460	13.86	–	–
CCn1c(-c2nonc2N)nc2c(-c3cccc(NC(=O)NC45CC6CC(CC(C6)C4)C5)c3)ncc(OCCCN)c21.O=C(O)C(F)(F)F [TCMDC-136246]	–	–	–	–	-16.91	IC50 [2]: 1360 nM; HepG2 cells mean TOX50 (HepG2 cells): 6.10 µM
Cl.c1ccc2c(Nc3ccc(OCCOCCOc4ccc(Nc5c6ccccc6nc6ccccc56)cc4)cc3)c3ccccc3nc2c1 [TCMDC-137355]	–	–	–	–	-18.54	HepG2 cells mean TOX50 (HepG2 cells): 5.59 µM; IC50 [3, 6]: 280 nM
CC(=NNC(=S)NC(C)(C)C)c1ccccn1 [TCMDC-137783]	–	–	–	–	84.85	IC50 [2]: 40 nM; IC50 [3, 6]: 160 nM
CC(=NNC(S)=NCc1ccco1)c1ccccn1 [TCMDC-137906]	–	–	–	–	77.01	IC50 [2]: 20 nM; IC50 [3, 6]: 250 nM
CCN(CC)CC(O)CNc1c2ccc([N+](=O)[O-])cc2nc2cc(OC)c(OC)cc12.Cl (centres unmarked) [TCMDC-138079]	–	–	–	–	44.60	IC50 [2]: 3890 nM; IC50 [3, 6]: 270 nM
COc1ccc(CNC(=O)c2cnc3c(O)cccc3c2Nc2cccc(NC(=O)c3ccc(Cl)c(Cl)c3)c2)cc1.O=C(O)C(F)(F)F [TCMDC-139607]	–	–	–	–	90.02	IC50 [2]: 1600 nM; IC50 [3, 6]: 600 nM
CC(C)(C)c1ccc(C(=O)Nc2cccc(Nc3c(C(=O)NCc4cccc(C(F)(F)F)c4)cnc4c(O)cccc34)c2)cc1.O=C(O)C(F)(F)F [TCMDC-139610]	–	–	–	–	83.54	IC50 [2]: 3630 nM; IC50 [3, 6]: 1090 nM
COc1ccc(CNC(=O)c2cnc3c(O)cccc3c2Nc2cccc(NC(=O)c3ccc(-c4ccccc4)cc3)c2)cc1.O=C(O)C(F)(F)F [TCMDC-139611]	–	–	–	–	88.95	IC50 [2]: 1820 nM; IC50 [3, 6]: 940 nM
CC(Cc1ccc(CNC(=O)NCc2ccc(CC(C)NCCc3cccc(Cl)c3)cc2)cc1)NCCc1cccc(Cl)c1 (centres unmarked) [TCMDC-139648]	–	–	–	–	12.15	HepG2 cells mean TOX50 (HepG2 cells): 3.94 µM; IC50 [3, 6]: 690 nM
